In patent publication US20170042890A1, “METHODS OF REDUCING DECLINE IN VITAL CAPACITY” (Cytokinetics, Inc., priority 2014, published 2017):

Columns and labels:
patients with ALS [1] = test: BENEFIT-ALS clinical trial: slow vital capacity (SVC); assay type: in vivo, human
Procedure: (§1) BENEFIT-ALS was a multi-national, randomized, stratified, double-blind, placebo-controlled, parallel-group study of tirasemtiv in patients with ALS. The study consisted of a screening period, an open-label/lead-in period, and a double-blind treatment period. Following screening, eligible patients received open-label tirasemtiv, 125 mg BID, for 7 days. Patients who tolerated the 7-day lead-in period were randomized in a 1:1 ratio to tirasemtiv or placebo. Over the first 3 weeks of double-blind treatment, patients randomized to tirasemtiv had their TDD up-titrated as follows: 250 mg for 7 days, then 375 mg for 7 days, then 500 mg for 7 days. […] However, in such cases, dose escalation was re-attempted at least one additional time. The highest tolerable tirasemtiv dose for each individual patient was the dose that patient received for the remaining 9 weeks (i.e., the maximum tolerated dose [MTD] phase) of the study. Patients randomized to placebo underwent a corresponding dummy dose titration.
(§2) Randomization was stratified by riluzole use. […] Clinical assessments occurred every 4 weeks during double-blind treatment; patients also returned for follow-up evaluations at 1 and 4 weeks after their final dose of double-blind study medication (FIG. 1).
(§3) The secondary objectives included assessments of the effect of tirasemtiv versus placebo on measures of respiratory function (Maximum Voluntary Ventilation (MVV), Sniff Nasal Inspiratory Pressure (SNIP), SVC) and skeletal muscle function including handgrip fatigue and muscle-strength mega-score (i.e., the average z-score for muscle strength measurements across the following tested bilateral muscle groups: elbow flexion, wrist extension, knee extension, ankle dorsiflexion, and handgrip)). Secondary endpoints included the changes from baseline in each of the above mentioned measures (MVV, SNIP, SVC, and muscle-strength mega-score) for the Modified FAS, and the slope of each of the measures from baseline to Week 12 for the Modified FAS.
(§4) Eligible patients were males and females, 18 years of age and older, with a diagnosis of familial or sporadic ALS and meeting the World Federation of Neurology El Escorial criteria of definite ALS, probable ALS, laboratory-supported probable ALS, or possible ALS. Patients were to have an upright SVC>50% of predicted for age, height, and sex, a diminished, but measurable, maximum voluntary grip strength in at least one hand (i.e., between 10-50 pounds for females and 10-70 pounds for males), and at least 4 of the 12 ALSFRS-R questions were to have been scored as a 2 or 3. Patients were to be able to swallow tablets without crushing, and in the opinion of the investigator, were expected to do so for the duration of the study. If the patient needed a caregiver, the caregiver was to be able to observe the patient's status. Clinical laboratory results were to be either within their respective normal ranges or if outside the normal range, deemed not clinically significant by the investigator. […] Patients not taking riluzole prior to study entry were not permitted to take riluzole at any dose during the course of the study.
(§5) Safety data presented were based on the safety analysis set, defined as all patients who received at least 1 dose of double-blind study drug. Of the 605 randomized patients, 596 (295 placebo, 301 tirasemtiv) received at least 1 dose of double-blind study drug and were included in the safety analysis set. Data for the primary and secondary efficacy endpoints were analyzed with the Modified FAS. This analysis set included all patients who received at least 1 dose of double-blind study drug and had at least 1 efficacy assessment during the double-blind treatment period, and excluded 156 patients who were randomized in blocks containing patients affected by a study drug assignment error in which 58 patients randomized to and treated with double-blind tirasemtiv were dispensed double-blind placebo instead. […]

patients with ALS [2] = test: BENEFIT-ALS clinical trial: Sniff Nasal Inspiratory Pressure (SNIP); assay type: in vivo, human
Procedure: as §1, §2, §3, §4, §5

[3] = BENEFIT-ALS clinical trial: body weight; assay type: in vivo; details: N=178
Procedure: as §1
Safety data presented were based on the safety analysis set, defined as all patients who received at least 1 dose of double-blind study drug. Of the 605 randomized patients, 596 (295 placebo, 301 tirasemtiv) received at least 1 dose of double-blind study drug and were included in the safety analysis set. Data for the primary and secondary efficacy endpoints were analyzed with the Modified FAS. This analysis set included all patients who received at least 1 dose of double-blind study drug and had at least 1 efficacy assessment during the double-blind treatment period, and excluded 156 patients who were randomized in blocks containing patients affected by a study drug assignment error in which 58 patients randomized to and treated with double-blind tirasemtiv were dispensed double-blind placebo instead. Based on these criteria, the Modified FAS consisted of 388 patients (210 placebo, 178 tirasemtiv).

CYP 1A2 = target: T1, CYP 1A2 (Homo sapiens, UniProt P05177); details: cited from earlier work
T1 sequence (P05177 1-516): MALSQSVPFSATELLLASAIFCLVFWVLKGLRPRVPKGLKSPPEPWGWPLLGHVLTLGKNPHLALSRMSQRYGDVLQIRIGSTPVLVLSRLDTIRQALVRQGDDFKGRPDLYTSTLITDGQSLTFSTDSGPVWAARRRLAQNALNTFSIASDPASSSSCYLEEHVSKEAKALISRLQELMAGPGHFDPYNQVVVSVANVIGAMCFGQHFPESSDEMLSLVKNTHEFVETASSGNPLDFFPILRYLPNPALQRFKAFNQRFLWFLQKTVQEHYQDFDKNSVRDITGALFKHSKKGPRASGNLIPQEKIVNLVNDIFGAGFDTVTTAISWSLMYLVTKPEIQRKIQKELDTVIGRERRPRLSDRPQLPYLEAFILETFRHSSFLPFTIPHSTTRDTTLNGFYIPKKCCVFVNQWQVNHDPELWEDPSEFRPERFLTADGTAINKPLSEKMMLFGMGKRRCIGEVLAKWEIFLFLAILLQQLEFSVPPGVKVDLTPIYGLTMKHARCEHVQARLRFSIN

[4] = test system: slow skeletal muscle troponin; details: cited from earlier work
cardiac muscle troponin = details: cited from earlier work
[5] = test system: muscle contraction / grip strength; details: cited from earlier work
muscle = details: other model systems; cited from earlier work

## C#Cc1cnc2nc(O)n(C(CC)CC)c2n1 [Tirasemtiv, 6-ethynyl-1-(pentan-3-yl)-1H-imidazo[4,5-b]pyrazin-2(3H)one]
Patients with ALS [1]; Modified FAS N=178
  SVC slope of changes from baseline to Week 12: −0.0394
Patients with ALS [1]; Week 4, Modified FAS N=178
  SVC change from baseline (LS mean): −0.99 % predicted
Patients with ALS [1]; Week 8, Modified FAS N=178
  SVC change from baseline (LS mean): −2.85 % predicted
Patients with ALS [1]; Week 12, Modified FAS N=178
  SVC change from baseline (LS mean): −3.12 % predicted
Patients with ALS [1]; Week 13, 1 week after last dose of double-blind study drug
  SVC change from baseline (LS mean), post-treatment: −3.75 % predicted
Patients with ALS [1]; Week 16, 4 weeks after last dose of double-blind study drug
  SVC change from baseline (LS mean), post-treatment: −5.39 % predicted
Patients with ALS [1]; after 12 weeks of treatment
  LS mean±SE change from baseline in SVC: −3.12%
Patients with ALS [1]; baseline to Week 12, p=0.0006
  SVC difference in slope (tirasemtiv vs placebo): 0.051
Patients with ALS [1]; subgroup: baseline SVC>median at baseline, p<0.0001
  Treatment difference in change from baseline to average SVC after 8 and 12 weeks: 6.02%
Patients with ALS [1]; subgroup: females, p=0.012
  Treatment difference in change from baseline to average SVC after 8 and 12 weeks: 6.84%
Patients with ALS [1]; subgroup: non-riluzole users, p=0.0005
  Treatment difference in change from baseline to average SVC after 8 and 12 weeks: 6.55%
Patients with ALS [1]; versus placebo
  Effect on decline of SVC, in words: statistically significant and potentially clinically meaningful reduction in the decline of SVC
Patients with ALS [2]; Modified FAS N=178
  SNIP slope from baseline to Week 12: −0.053
Patients with ALS [2]; Week 4, Modified FAS N=178
  SNIP change from baseline (LS mean): −4.33 cm H2O
Patients with ALS [2]; Week 8, Modified FAS N=178
  SNIP change from baseline (LS mean): −3.55 cm H2O
Patients with ALS [2]; Week 12, Modified FAS N=178
  SNIP change from baseline (LS mean): −5.03 cm H2O
Patients with ALS [2]; p=0.012 and 0.050
  SNIP versus placebo, in words: statistically significantly greater decrease in SNIP at Weeks 4 and 8
Patients with ALS [2]; p=0.2108
  SNIP difference in slope (tirasemtiv vs placebo): −0.0312
[3]; Week 4
  Weight change from baseline, LS mean: -0.83 kg
[3]; Week 8
  Weight change from baseline, LS mean: -1.30 kg
[3]; Week 12
  Weight change from baseline, LS mean: -1.70 kg
CYP 1A2
  Effect on CYP 1A2: inhibited
[4]
  Effect on slow skeletal muscle troponin: little effect
Cardiac muscle troponin
  Effect on cardiac muscle troponin: no effect
[5]; preclinical models of limited neuromuscular input
  Grip strength: increased grip strength
[5]; submaximal nerve stimulation frequencies
  Force of muscle contraction: increased the force of muscle contraction
muscle
  Fatigability of muscle: decreased fatigability of muscle
  Muscle power: increased muscle power
